Tests used:
[1] = tested on: IL-6 secretion in BV-2 mouse microglia cells; assay: IL-6 Secretion in BV-2 Cell (L18-MDP stimulated, ELISA); type: cell-based; settings: BV-2 cells, 10 μg/ml L18-MDP, 24 hr
Experimental: IL-6 Secretion in BV-2 Cell
BV-2 mouse microglia cells were kindly provided from Dr. Bae in Korea Institute of Science and Technology (KIST). BV-2 cells were thawed and suspended in Dulbecco's modified eagle medium (DMEM) supplemented with 10% fetal bovine serum (FBS) and 1% Penicillin/Streptomycin. Cells were seeded into 96 well plates at 2×10^4 cells/well and allowed to attach for 24 hr. On the day of the experiment, various concentration of FB compounds was treated, and cells were stimulated with 10 μg/ml L18-MDP. After 24 hr incubation, supernatant was collected for cytokine assay.
Absorbance at 450 nm was measured using SpectraMax i3X microplate reader (Molecular Device). Values of media-only wells were subtracted and % inhibition for each compound concentration relative to the DMSO/L18-MDP-treated controls (100%) was calculated. The IC50 values were calculated from a series of percent activity values using software as implemented in the GraphPad Prism 7 software and SigmaPlot 13.0.

[2] = target: GST-tagged recombinant human RIP2 (Homo sapiens (Human), UniProt O43353); assay: RIP2 Kinase Assay (ADP-Glo); type: biochemical; settings: in vitro kinase activity, ATP 25 μM
GST-tagged recombinant human RIP2, sequence (O43353 whole entry): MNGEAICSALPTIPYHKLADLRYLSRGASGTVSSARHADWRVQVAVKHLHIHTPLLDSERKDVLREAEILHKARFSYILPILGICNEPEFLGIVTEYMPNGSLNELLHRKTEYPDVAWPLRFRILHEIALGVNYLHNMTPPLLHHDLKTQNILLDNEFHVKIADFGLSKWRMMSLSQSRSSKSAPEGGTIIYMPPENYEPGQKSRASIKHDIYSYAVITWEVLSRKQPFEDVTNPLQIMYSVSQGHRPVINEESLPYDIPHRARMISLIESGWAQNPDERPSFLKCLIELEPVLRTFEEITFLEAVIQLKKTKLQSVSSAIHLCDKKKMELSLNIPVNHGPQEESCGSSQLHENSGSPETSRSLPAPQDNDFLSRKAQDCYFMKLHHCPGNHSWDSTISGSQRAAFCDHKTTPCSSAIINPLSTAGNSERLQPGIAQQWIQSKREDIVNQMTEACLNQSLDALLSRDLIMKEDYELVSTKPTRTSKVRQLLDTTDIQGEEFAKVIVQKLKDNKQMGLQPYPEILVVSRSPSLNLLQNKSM
Experimental: GST-tagged recombinant human RIP2 (25 ng) is incubated with 5 μL of compounds (0.5% DMSO), 5 μL of MBP (0.5 μg/μl) and 5 μL of ATP (25 μM) in buffer (40 mM Tris, 7.5; 20 mM MgCl2; 0.1 mg/ml BSA; 50 μM DTT). The assay was started by incubating the reaction mixture in a 96-well plate at 30° C. for 60 minutes. After the incubation, 25 μL ADP-Glo reagent was added, and the reaction was incubated at 30° C. for 40 minutes to stop the reaction and degrade residual ATP. The ADP product was then converted to ATP by adding 50 μL per well of detection reagent. Luminescence was detected after 30 minutes room temperature incubation with the Molecular device I3X plate reader. The IC50 values were calculated from a series of percent inhibition values determined at a range of inhibitor concentration using software routines as implemented in the GraphPad Prism 7 software and SigmaPlot 13.0.

Row | Compound | IC50 [1] [nM] | IC50 [2] [nM]
1 | Cc1ccc2[nH]ncc2c1-c1ccc2nc(N)c(C(=O)C3CC3)n2c1 [Example 3] | > 1000 | 1 to 100
2 | Nc1nc2ccc(-c3cnc4[nH]ccc4c3)cn2c1C(=O)[C@@H]1C[C@@H]1F [Example 32] | 101 to 500 | 1 to 100
3 | Nc1nc2ccc(-c3cnc4[nH]ccc4c3Cl)cn2c1C(=O)[C@@H]1C[C@@H]1F [Example 41] | 101 to 500 | 1 to 100
4 | Nc1nc2ccc(-c3cccc(F)c3Cl)cn2c1C(=O)[C@@H]1C[C@@H]1F [Example 44] | 501 to 1000 | 1 to 100
5 | Nc1nc2ccc(-c3c(Cl)c(F)cc4[nH]ncc34)cn2c1C(=O)[C@@H]1C[C@@H]1F [Example 64] | 101 to 500 | 1 to 100
6 | CN(C)c1c(F)c(Cl)c(-c2ccc3nc(N)c(C(=O)[C@@H]4C[C@@H]4F)n3c2)c2cn[nH]c12 [Example 65] | > 1000 | > 1000
7 | Nc1nc2ccc(-c3ccc4[nH]ccc4c3)cn2c1C(=O)c1ccccn1 [Example 67] | 501 to 1000 | 1 to 100
8 | Nc1nc2ccc(-c3cnc4[nH]ccc4c3)cn2c1C(=O)c1ccccn1 [Example 68] | 101 to 500 | 1 to 100
9 | Nc1nc2ccc(-c3cnc4[nH]ccc4c3F)cn2c1C(=O)[C@@H]1C[C@@H]1F [Example 69] | 501 to 1000 | 1 to 100
10 | Nc1nc2ccc(-c3ccc4[nH]ccc4c3Cl)cn2c1C(=O)[C@@H]1C[C@@H]1F [Example 73] | 101 to 500 | 1 to 100
11 | Cc1c(-c2ccc3nc(N)c(C(=O)c4ccccn4)n3c2)cnc2[nH]ccc12 [Example 74] | 101 to 500 | 1 to 100
12 | Nc1nc2ccc(-c3cnc4[nH]ccc4c3Cl)cn2c1C(=O)c1ccccn1 [Example 75] | 501 to 1000 | 1 to 100
13 | Nc1nc2ccc(-c3cnc4[nH]ccc4c3)cn2c1C(=O)c1ncccn1 [Example 79] | > 1000 | 1 to 100
14 | Cc1c(-c2ccc3nc(N)c(C(=O)C4CNC4)n3c2)cnc2[nH]ccc12 [Example 82] | > 1000 | 1 to 100
15 | Nc1nc2ccc(-c3cnc4[nH]ccc4c3Cl)cn2c1C(=O)C1CNC1 [Example 83] | > 1000 | 1 to 100
16 | Cc1c(-c2ccc3nc(N)c(C(=O)c4ccncn4)n3c2)cnc2[nH]ccc12 [Example 84] | 501 to 1000 | 1 to 100
17 | Cc1c(-c2ccc3nc(N)c(C(=O)c4ncccn4)n3c2)cnc2[nH]ccc12 [Example 85] | 501 to 1000 | 1 to 100
18 | Nc1nc2ccc(-c3cnc4[nH]ccc4c3)cn2c1C(=O)C1CNC1 [Example 86] | > 1000 | 1 to 100
19 | Cc1c(-c2ccc3nc(N)c(C(=O)[C@@H]4C[C@@H]4F)n3c2)ccc2[nH]ncc12 [Example 90] | 501 to 1000 | 1 to 100
20 | Cc1c(-c2ccc3nc(N)c(C(=O)C4CCNC4)n3c2)cnc2[nH]ccc12 (centres unmarked) [Example 94] | > 1000 | 1 to 100
21 | Nc1nc2ccc(-c3cnc4[nH]ccc4c3Cl)cn2c1C(=O)C1CCNC1 (centres unmarked) [Example 95] | > 1000 | 1 to 100
22 | Cc1ccc2[nH]ccc2c1-c1ccc2nc(N)c(C(=O)[C@@H]3C[C@@H]3F)n2c1 [Example 100] | 101 to 500 | 1 to 100
23 | Nc1nc2ccc(-c3c(F)ccc4[nH]ccc34)cn2c1C(=O)[C@@H]1C[C@@H]1F [Example 101] | 501 to 1000 | 1 to 100
24 | Nc1nc2ccc(-c3ccccc3CCF)cn2c1C(=O)[C@@H]1C[C@@H]1F [Example 130] | – | 101 to 500
25 | Nc1nc2ccc(-c3cccc(F)c3CCCF)cn2c1C(=O)[C@@H]1C[C@@H]1F [Example 131] | – | 101 to 500
26 | Nc1nc2ccc(-c3ccccc3CCCF)cn2c1C(=O)[C@@H]1C[C@@H]1F [Example 132] | – | 101 to 500

Row | Compound | IC50 [1] [nM] | IC50 [2] [nM]
27 | Cc1c(N)cc(F)cc1-c1ccc2nc(N)c(C(=O)[C@@H]3C[C@@H]3F)n2c1 [Example 133] | – | 1 to 100
28 | Cc1cc(-c2ccc3nc(N)c(C(=O)[C@@H]4C[C@@H]4F)n3c2)c(F)cc1N [Example 134] | – | 1 to 100
29 | COC(=O)c1c(N)nc2ccc(-c3cccc(F)c3C)cn12 [Example 135, methyl 2-amino-6-(3-fluoro-2-methylphenyl)imidazo[1,2-a]pyridine-3-carboxylate] | – | 101 to 500
30 | Nc1nc2ccc(-c3cccc(F)c3CCF)cn2c1C(=O)[C@@H]1C[C@@H]1F [Example 136] | – | > 1000
31 | CC(C)(C)OC(=O)NCc1ccccc1-c1ccc2nc(N)c(C(=O)[C@@H]3C[C@@H]3F)n2c1 [Example 137] | – | > 1000
32 | NCc1ccccc1-c1ccc2nc(N)c(C(=O)[C@@H]3C[C@@H]3F)n2c1 [Example 138] | – | > 1000
33 | Nc1nc2ccc(-c3ccccc3CCF)cn2c1C(=O)[C@@H]1C[C@H]1F [Example 139] | – | > 1000
34 | Nc1nc2ccc(-c3ccccc3CCF)cn2c1C(=O)[C@H]1C[C@@H]1F [Example 140] | – | > 1000
35 | Cc1ccc(N)cc1-c1ccc2nc(N)c(C(=O)[C@@H]3C[C@@H]3F)n2c1 [Example 142] | – | 1 to 100
36 | Cc1cccc(N)c1-c1ccc2nc(N)c(C(=O)[C@@H]3C[C@@H]3F)n2c1 [Example 143] | – | > 1000
37 | CO/C=C/c1c(F)cccc1-c1ccc2nc(N)c(C(=O)[C@@H]3C[C@@H]3F)n2c1 [Example 144] | – | 101 to 500
38 | C=Cc1c(F)cccc1-c1ccc2nc(N)c(C(=O)[C@@H]3C[C@@H]3F)n2c1 [Example 145] | – | 1 to 100
39 | CNc1cc(F)cc(-c2ccc3nc(N)c(C(=O)[C@@H]4C[C@@H]4F)n3c2)c1C [Example 146] | – | 101 to 500
40 | Cc1c(-c2ccc3nc(N)c(C(=O)[C@@H]4C[C@@H]4F)n3c2)cc(F)cc1N(C)C [Example 147] | – | 101 to 500
41 | Cc1c(F)cccc1Nc1ccc2nc(N)c(C(=O)[C@@H]3C[C@@H]3F)n2c1 [Example 148, (2-amino-6-((3-fluoro-2-methylphenyl)amino)imidazo[1,2-a]pyridin-3-yl)((1S,2S)-2-fluorocyclopropyl)methanone] | – | 101 to 500
42 | CN(C)c1c(F)c(Cl)c(-c2ccc3nc(N)c(C(=O)NC4CC4)n3c2)c2cn[nH]c12 [Example 149] | – | > 1000
43 | CSc1c(F)c(Cl)c(-c2ccc3nc(N)c(C(=O)O[C@@H]4COC[C@H]4C)n3c2)c2cn[nH]c12 [Example 151, (3S,4R)-4-methyltetrahydrofuran-3-yl 2-amino-6-(5-chloro-6-fluoro-7-(methylthio)-1H-indazol-4-yl)imidazo[1,2-a]pyridine-3-carboxylate] | – | > 1000
44 | Cc1c(F)cc(N)cc1-c1ccc2nc(N)c(C(=O)[C@@H]3C[C@@H]3F)n2c1 [Example 155] | – | 1 to 100
45 | Nc1nc2ccc(-c3ccc4[nH]ccc4c3)cn2c1C(=O)[C@H]1C[C@H]1F [Example 156] | – | 1 to 100
46 | Nc1nc2ccc(-c3ccc4[nH]ccc4c3)cn2c1C(=O)[C@H]1C[C@@H]1F [Example 157] | – | 1 to 100
47 | Nc1nc2ccc(-c3ccc4[nH]ccc4c3)cn2c1C(=O)[C@@H]1C[C@H]1F [Example 158] | – | 1 to 100
48 | Cc1c(-c2ccc3nc(N)c(C(=O)[C@H]4C[C@H]4F)n3c2)ccc2[nH]ccc12 [Example 159] | – | 1 to 100
49 | Cc1c(F)cccc1Oc1ccc2nc(N)c(C(=O)[C@@H]3C[C@@H]3F)n2c1 [Example 160] | – | 101 to 500
50 | Cc1c(-c2ccc3nc(N)c(C(=O)[C@H]4C[C@@H]4F)n3c2)ccc2[nH]ccc12 [Example 161] | – | 1 to 100
51 | Cc1c(-c2ccc3nc(N)c(C(=O)[C@@H]4C[C@H]4F)n3c2)ccc2[nH]ccc12 [Example 162] | – | 1 to 100
